“And” between values parts separate entries of the source, which are not always exact repeats. Equal entries are not always repeated. The source made the active and inactive calls. How the calls were made is not given here.
Molecular target: Melanin-concentrating hormone receptor 1 (Homo sapiens) (UniProt Q99705)
Experiment: MCHR1 antagonists, dose response, counter-screen for GPR7 antagonist project, cell-based, fluorescence, set 4 (AID 588568)
Details: MCHR1-expressing cells, fluorescence antagonist assay; for inhibition: at 20 µM (top of the series)

| IC50 (run 1) | SMILES | also measured |
| --- | --- | --- |
| 7.65 µM | COc1ccc(Oc2c(Cl)cnn(Cc3c(Cl)cccc3Cl)c2=O)cc1 |  |
| 2.31 µM | CCc1cccc(-n2ncc(Cl)c(Oc3ccc(OC)cc3)c2=O)c1 |  |
| 1.45 µM | COc1ccc(Oc2c(Cl)cnn(Cc3ccc(Cl)cc3Cl)c2=O)cc1 |  |
| 4.16 µM | COc1ccc(Oc2c(Cl)cnn(Cc3ccc(F)cc3Cl)c2=O)cc1 |  |
| 9.37 µM | CCOc1ccc(Cn2ncc(Cl)c(Oc3ccc(OC)cc3)c2=O)cc1C#N |  |
| 0.438 µM | COc1ccc(Oc2c(Cl)cnn(-c3ccc4ccccc4c3)c2=O)cc1 |  |
| 2.92 µM | COc1ccc(Oc2c(Cl)cnn(-c3cccc(Br)c3)c2=O)cc1 |  |
| 9.05 µM | C=Cc1ccc(Cn2ncc(Cl)c(Oc3ccc(OC)cc3)c2=O)cc1 |  |
| > 20 µM (inactive) | COc1ccc(Oc2c(Cl)cnn(Cc3ccc(C(C)C)cc3)c2=O)cc1 |  |
| > 20 µM (inactive) | COc1ccc(Oc2c(Cl)cnn(Cc3ccc(Br)c4ccccc34)c2=O)cc1 |  |
| 9.6 µM | COc1ccc(Oc2c(Cl)cnn(-c3ccc(C(F)(F)F)cc3)c2=O)cc1 | IC50 (run 2): 9.81 µM |
| > 20 µM (inactive) | CC(C)c1ccc(-n2ncc(Cl)c(Oc3ccc(O)cc3)c2=O)cc1 |  |
| 2.49 µM | COc1ccc(Oc2c(Cl)cnn(Cc3ccc(F)c4ccccc34)c2=O)cc1 |  |
| inactive | COc1ccc(Oc2c(Cl)cnn(-c3ccc(Cl)cc3)c2=O)cc1 |  |
| inactive | COc1ccc(Oc2c(Cl)cnn(C(CO)c3ccccc3)c2=O)cc1 (configuration not stated) |  |
| 5.13 µM | COc1ccc(Oc2c(Cl)cnn(-c3ccc(C4=CCCCC4)cc3)c2=O)cc1 |  |
| 7.26 µM and 4.63 µM | COc1ccc(Oc2c(Cl)cnn(-c3ccc(-c4ccccc4)cc3)c2=O)cc1 |  |
| 8.91 µM | COc1ccc(Oc2c(Cl)cnn(-c3ccc(C)cc3C)c2=O)cc1 |  |

| IC50 (run 1) | SMILES | also measured |
| --- | --- | --- |
| 5.1 µM | COc1ccc(Oc2c(Cl)cnn(Cc3ccc(C)c(C)c3)c2=O)cc1 |  |
| inactive | COc1ccc(Oc2c(C#N)cnn(-c3ccc(Br)cc3)c2=O)cc1 |  |
| > 20 µM (inactive) | COc1ccc(Oc2cnn(Cc3cccc4ccccc34)c(=O)c2Br)cc1 |  |
| > 20 µM (inactive) | Cc1ccc(-n2ncc(Cl)c(Oc3ccc(O)cc3)c2=O)cc1 |  |
| > 20 µM (inactive) | COc1ccc(Oc2c(Cl)cnn(-c3nc4ccccc4c4ccccc34)c2=O)cc1 |  |
| inactive | COc1ccc(Oc2c(Cl)cnn(CCc3cccc4ccccc34)c2=O)cc1 |  |
| inactive | COc1ccc(Oc2c(Cl)cnn(-c3ccccc3)c2=O)cc1 |  |
| 8.55 µM | COc1ccc(Oc2c(Cl)c(OC)nn(-c3cccc(C)c3)c2=O)cc1 |  |
| 8.69 µM | COc1ccc(Oc2c(Cl)cnn(C(C)c3cccc4ccccc34)c2=O)cc1 (configuration not stated) |  |
| 7.57 µM | COc1ccc(Oc2c(Cl)cnn(Cc3ccc4c(c3)OCO4)c2=O)cc1 |  |
| 3.2 µM | COc1ccc(Oc2c(Cl)cnn(Cc3ccc(Cl)cc3)c2=O)cc1 |  |
| 9.47 µM | COc1ccc(Oc2c(Cl)cnn(-c3ccc(C)c(C)c3)c2=O)cc1 | IC50 (run 2): 3.99 µM |
| 2.68 µM | COc1ccc(Oc2c(Cl)cnn(C3=Nc4ccccc4Oc4ccccc43)c2=O)cc1 |  |
| 1.78 µM | COc1ccc(Oc2c(Cl)cnn(Cc3ccc(C(F)(F)F)cc3)c2=O)cc1 |  |
| 5.54 µM | COc1ccc(Oc2c(Cl)cnn(Cc3ccc(OC(C)C)c(C#N)c3)c2=O)cc1 |  |
| 9.78 µM | CCCCCc1ccc(-n2ncc(Cl)c(Oc3ccc(OC)cc3)c2=O)cc1 |  |
| 5.41 µM | COc1ccc(Oc2c(C)cnn(Cc3cccc4ccccc34)c2=O)cc1 |  |
| > 20 µM (inactive) | COc1ccc(Oc2c(Cl)cnn(-c3ccc(-c4ccc(C)cc4)cc3)c2=O)cc1 |  |

Second part, the molecule before the results:

| SMILES | IC50 (run 1) | also measured |
| --- | --- | --- |
| Cc1ccccc1Cn1ncc(Cl)c(Oc2ccc(CO)cc2)c1=O | 4.92 µM |  |
| O=c1c(Oc2ccc(OC(F)(F)F)cc2)c(Cl)cnn1C1c2ccccc2-c2ccccc21 | > 20 µM (inactive) |  |
| CCOc1ccc(Oc2ccnn(Cc3cccc4ccccc34)c2=O)cc1 | 4.6 µM |  |
| COc1ccccc1CNC(=O)c1cnn(-c2ccc(Cl)cc2)c1C(F)(F)F | 7.23 µM |  |
| COc1ccc(Oc2c(Cl)cnn(C(COC(C)=O)c3cccc4ccccc34)c2=O)cc1 (configuration not stated) | > 20 µM (inactive) |  |
| Cc1ccccc1Cn1ncc(Oc2ccc(CO)cc2)c(Cl)c1=O | 6.54 µM |  |
| CC(=O)OCc1ccc(Oc2c(Cl)cnn(Cc3cccc4ccccc34)c2=O)cc1 | 6 µM |  |
| COc1ccc(Oc2c(Cl)c(-c3ccc(C)cc3)nn(Cc3ccccc3C)c2=O)cc1 | 6.43 µM |  |
| COc1ccc(Oc2c(Cl)cnn(Cc3cccc(C(F)(F)F)c3)c2=O)cc1 | 4.7 µM |  |
| COc1ccc(Oc2c(Cl)c(C3=CCCCC3)nn(Cc3ccccc3C)c2=O)cc1 | 3.57 µM |  |
| COc1ccc(Oc2c(OC)nn(-c3cccc(C)c3)c(=O)c2Oc2ccc(OC)cc2)cc1 | inactive |  |
| COc1ccc(Oc2c(Cl)c(-c3ccc(OC)cc3)nn(Cc3ccccc3C)c2=O)cc1 | > 20 µM (inactive) |  |
| COc1ccc(Oc2c(Cl)cnn(CC3CCCC3)c2=O)cc1 | inactive |  |
| O=C(O)c1ccc(Oc2c(Cl)cnn(Cc3cccc4ccccc34)c2=O)cc1 | > 20 µM (inactive) |  |
| CCOc1ccc(Oc2c(N3CCCCC3)cnn(Cc3cccc4ccccc34)c2=O)cc1 |  | inhibition (run 1): inactive |
| Cc1ccc(CN2CCCCC2C(=O)N2CCN(c3ccc([N+](=O)[O-])cc3)CC2)cc1C (configuration not stated) | 3.3 µM |  |
| COc1ccc(Oc2c(Cl)c(-c3ccccc3C)nn(Cc3ccccc3C)c2=O)cc1 | 1.79 µM |  |
| COc1ccc(Oc2c(-c3ccsc3)c(-c3ccsc3)nn(Cc3ccccc3C)c2=O)cc1 | > 20 µM (inactive) |  |
| Cc1cc(C)cc(-n2nc(C#N)c(=O)[nH]c2=O)c1 | > 20 µM (inactive) |  |
| O=C(c1cnn(-c2ccc(Cl)cc2)c1C(F)(F)F)N1CCN(c2ccc([N+](=O)[O-])cc2)CC1 | 1.64 µM |  |
| COc1ccc(Oc2c(Cl)cnn(C(CCl)c3cccc4ccccc34)c2=O)cc1 (configuration not stated) | > 20 µM (inactive) |  |
| CCOc1ccc(Oc2c(NC(=O)OC(C)(C)C)cnn(Cc3cccc4ccccc34)c2=O)cc1 | > 20 µM (inactive) |  |

| SMILES | IC50 (run 1) | also measured |
| --- | --- | --- |
| COc1ccc(Oc2c(Cl)cnn(Cc3c(C)cc(C)cc3C)c2=O)cc1 | 7.5 µM |  |
| COc1ccc(Oc2c(Cl)c(Br)nn(Cc3ccccc3C)c2=O)cc1 | 1.79 µM |  |
| COc1ccc(Oc2c(Cl)c(-c3ccc(C(F)(F)F)cc3)nn(Cc3ccccc3C)c2=O)cc1 | inactive |  |
| Cc1cccc(Cn2ncc(Cl)c(Oc3ccc(CO)cc3)c2=O)c1 | > 11.5 µM (inactive) |  |
| Cc1cc(C)cc(-n2ncc(Cl)c(Oc3ccc(Oc4ccccc4)cc3)c2=O)c1 | 2.24 µM |  |
| O=c1c(Oc2ccc(OC(F)(F)F)cc2)c(Cl)cnn1Cc1cccc2ccccc12 | inactive |  |
| NCc1ccc(Oc2c(Cl)cnn(Cc3cccc4ccccc34)c2=O)cc1 | inactive |  |
| O=c1c(Oc2ccc(CCl)cc2)c(Cl)cnn1Cc1cccc2ccccc12 | 7.92 µM |  |
| COc1ccc(Oc2c(-c3ccccc3C)c(-c3ccccc3C)nn(Cc3ccccc3C)c2=O)cc1 | inactive |  |
| O=c1c(Oc2ccc(CO)cc2)c(Cl)cnn1Cc1cccc2ccccc12 | 6.75 µM |  |
| COc1ccc(Oc2c(Cl)cnn(C(c3ccccc3)c3ccccc3C)c2=O)cc1 (configuration not stated) | inactive |  |
| O=c1c(Oc2ccc3occc3c2)c(Cl)cnn1Cc1cccc2ccccc12 | > 20 µM (inactive) |  |
| CCc1ccc(Oc2c(Cl)cnn(C3c4ccccc4-c4ccccc43)c2=O)cc1 | > 20 µM (inactive) |  |
| CCCC(=O)OCC(c1cccc2ccccc12)n1ncc(Cl)c(Oc2ccc(OC)cc2)c1=O (configuration not stated) | > 20 µM (inactive) |  |
| Cc1cc(C)cc(Cn2[nH]cc(Oc3ccc(CO)cc3)c(=O)c2=O)c1 | 2.32 µM |  |
| CC(C)c1ccc(Oc2c(Cl)cnn(Cc3cccc4ccccc34)c2=O)cc1 | 8.08 µM |  |
| COc1ccc(Oc2c(-c3ccc(C)cc3)c(-c3ccc(C)cc3)nn(Cc3ccccc3C)c2=O)cc1 | > 20 µM (inactive) |  |
| COc1ccc(Oc2c(Cl)cnn(CC3CCC3)c2=O)cc1 |  | inhibition (run 1): inactive |
| COCc1ccc(Oc2c(Cl)cnn(Cc3cccc4ccccc34)c2=O)cc1 | > 20 µM (inactive) |  |
| COc1ccc(Nc2ccnn(Cc3cccc4ccccc34)c2=O)cc1 | > 20 µM (inactive) |  |
| Cc1cc(C)cc(-n2ncc(Cl)c(Oc3ccc(CO)cc3)c2=O)c1 | 2.25 µM |  |
| Cc1cc(C)cc(Cn2ncc(Cl)c(Oc3ccc(CO)cc3)c2=O)c1 | 3.02 µM |  |

| SMILES | IC50 (run 1) | also measured |
| --- | --- | --- |
| CCN(CC)C(=O)C(c1ccccc1Cl)n1ncc(Cl)c(Oc2ccc(OC)cc2)c1=O (configuration not stated) | > 11.5 µM (inactive) |  |
| C=Cc1cnn(Cc2cccc3ccccc23)c(=O)c1Oc1ccc(OC)cc1 | 1.69 µM |  |
| COc1ccc(Oc2c(C)c(C)nn(Cc3ccccc3C)c2=O)cc1 | 7.31 µM |  |
| COc1ccc(Oc2c(Cl)c(-c3ccsc3)nn(Cc3ccccc3C)c2=O)cc1 | 8.04 µM |  |
| O=Cc1ccc(Oc2c(Cl)cnn(Cc3cccc4ccccc34)c2=O)cc1 | 7.33 µM |  |
| COc1ccc(Oc2c(Cl)cnn(C(c3ccccc3)c3cccc4ccccc34)c2=O)cc1 (configuration not stated) | > 20 µM (inactive) |  |
| O=c1c(Oc2ccc(Oc3ccccc3)cc2)c(Cl)cnn1Cc1cccc2ccccc12 | > 20 µM (inactive) |  |
| COc1ccc(Oc2c(Cl)cnn(Cc3c(OC)ccc4ccccc34)c2=O)cc1 | 6.18 µM |  |
| COCn1ncc(Cl)c(Oc2ccc(OC)cc2)c1=O | > 20 µM (inactive) |  |
| COc1ccc(Oc2c(Cl)cnn(Cc3ccc(C4CCCCC4)c4ccccc34)c2=O)cc1 | > 20 µM (inactive) |  |
| Cc1cc(C)cc(-n2ncc(Cl)c(Oc3ccc(-c4ccccc4)cc3)c2=O)c1 | 8.03 µM |  |
| CCOc1ccc(Oc2c(N)cnn(Cc3cccc4ccccc34)c2=O)cc1 | 5.02 µM |  |
| COc1ccc(Oc2c(/C=N\O)cnn(Cc3cccc4ccccc34)c2=O)cc1 | inactive |  |
| COc1ccc(Oc2c(Cl)cnn(C(C(=O)OCCC3CCCC3)c3ccccc3Cl)c2=O)cc1 (configuration not stated) | > 20 µM (inactive) |  |
| COc1ccc(Oc2c(Cl)c(-c3ccccc3)nn(Cc3ccccc3C)c2=O)cc1 | 8.7 µM |  |
| CCCCCCCn1ncc(Cl)c(Oc2ccc(OC)cc2)c1=O | inactive |  |
| CCOC(=O)C(c1ccccc1Cl)n1ncc(Cl)c(Oc2ccc(OC)cc2)c1=O (configuration not stated) | 3.26 µM |  |
| COc1cccc(Oc2c(Cl)cnn(Cc3cccc4ccccc34)c2=O)c1 | 8.9 µM |  |
| Cc1cc(CN2CCCCC2C(=O)N2CCN(c3ccc([N+](=O)[O-])cc3)CC2)ccc1Cl (configuration not stated) | 1.42 µM |  |
| COc1ccc(Oc2c(Cl)c(C)nn(Cc3ccccc3C)c2=O)cc1 | 3.89 µM |  |
